How the values were obtained:
[1] = system: p-ERK; assay: Immunoblot of ERK phosphorylation, U373MG cells; assay type: cell-based, human; conditions: 50 μM pre-incubation 30 minutes, then PD 10 μM 24 hours
Experimental: FIGS. 10A to 10D show the results that PD-mediated autophagy inhibition is independent of mTOR and MAPK signaling pathways. FIGS. 10A to 10C show the results in which cells were treated with PD (0 μM, 0.5 μM, 1 μM, 5 μM, and 10 μM) for 24 hours. The immunoblot analyses for p-ULK1 (Ser757), ULK1, p-S6K (Thr389), p-AKT (Ser473), ERK2, P-ERK, p-JNK1, Beclin, and ATG7 were performed using lysates from GBMs. […] Total protein extracts were analyzed by immunoblot analyses for p-ERK, LC3B, and SQSTM1. GAPDH was used as an internal control.
(§1) Cells treated with the concentrations and materials described in FIGS. 1-3B, 7, 8, 10, 13, 16, 18, and 20 were lysed in buffer containing 20 mM Tris-HCl (pH 7.5), 150 mM NaCl, 1 mM EDTA, 1 mM Na2EDTA, 1 mM EGTA, 1% NP-40, 1% sodium deoxycholate, 1 mM Na3VO4, 1 mM MPI, 1 mM PMSF, and PI cocktails for 15 to 20 minutes on ice. Cell lysates were separated by SDS-PAGE and transferred to nitrocellulose membranes. […] The protein bands were detected with ECL western Blotting Substrate (Thermo Fisher Scientific, Waltham, Mass., USA).
Previous studies have shown that PD enhances autophagy via mTOR/MAPK pathway. […] It is known that mTORC1 activation, measured by S6K phosphorylation, inhibits autophagy initiation by phosphorylating the ULK1 (Ser 757). […]

[2] = system: LC3B and SQSTM1/p62; assay: Immunoblot of autophagy-related proteins (LC3B, SQSTM1/p62) in U373MG cells; assay type: cell-based, human; conditions: 50 μM pre-incubation 30 minutes, then PD 10 μM 24 hours
Experimental: The effects of 26 kinds of herbal medicines, which influence the expression of autophagy-related proteins (LC3B and SQSTM1/p62) in total cell lysates from U87MG and U373MG cells, […] GAPDH was used as a loading control.
The human glioma cell lines, U87MG and U373MG, were cultured respectively in RPMI-1640 (Welgene) and DMEM (Welgene, Daegu, Korea) supplemented with 10% fetal bovine serum (FBS, JR Scientific) and 1% antibiotics (Ab, Welgene). All cultures were maintained at 37° C. in a humidified incubator containing 5% CO2.
as §1
To discover novel autophagy inhibitors, 26 herbal medicines were screened by western blot analysis. […] Therefore, the effect of each herbal medicine on the change in the p62 level was evaluated, given that a rise in the amount of p62 is related to the inhibition of autophaic flux.

SMILES: COc1cccc(-c2cc(=O)c3ccccc3o2)c1N [PD98095, reference compound]
- phosphorylation of ERK [1]: effectively inhibited
- levels of LC3B-II and p62 [2]: did not alter

From patent US11351218B2, “Composition for preventing or treating glioblastoma comprising Platycodon grandiflorum A. De Candolle, Scutellaria baicalensis, Phellodendron amurense Ruprecht or Rubus coreanus” (University-Industry Cooperation Group of Kyung Hee …, priority 2019, dated 2022)
